In US11753407B2, “Compounds for treating spinal muscular atrophy” (PTC Therapeutics, Inc., priority 2012, dated 2023):

Assays:
[1] = test system: SMN2 minigene mRNA (SMN2-A minigene) in HEK293H cells; assay: SMN2 minigene mRNA splicing RT-qPCR assay in cultured cells; assay type: cell-based, human; conditions: Homo sapiens, HEK293-H; concentration increasing full length SMN2 mRNA 1.5-fold relative to vehicle-treated cells; HEK293H cells with SMN2-A minigene, 24 hours, 7-point concentration data; read-out: EC1.5x for production of full length SMN2 mRNA
Outline: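 EC1.5× = concentration raising full-length SMN2 minigene mRNA 1.5-fold over vehicle, from 7-point curves in duplicate. Stably transfected HEK293H cells exposed 24 h at 37 °C; lysates assayed by multiplex RT-qPCR, minigene FL signal normalized to GAPDH via modified ΔΔCt.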

[2] = test system: Smn protein in SMA patient fibroblast cells (GM03813); assay: Smn protein assay in cultured cells (SMN HTRF); assay type: cell-based, human; conditions: SMA patient fibroblast cells, 48 hours; for EC1.5x for Smn protein expression: 7-point concentration curve, SMN HTRF, concentration producing 1.5 times Smn protein vs DMSO vehicle control; for maximum fold (Fold) increase of Smn protein: 7-point concentration data, fold relative to vehicle control
Outline: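 Smn protein quantified by HTRF with anti-SMN d2/kryptate pair, 665/620 nm ratio blank-corrected, in RIPA lysates of GM03813 fibroblasts after 48 h compound exposure (7 concentrations, 3.16-fold steps, triplicates). Values: concentration producing 1.5× vehicle Smn level, and maximal fold increase.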

| Compound | EC (1.5-fold increase) [1] | EC1.5x for Smn protein expression [2] | maximum fold (Fold) increase of Smn protein [2] | melting point |
| --- | --- | --- | --- | --- |
| Cc1cn2nc(-c3cc(=O)n4cc(N5CCNC(C)(C)C5)ccc4n3)cc2c(C)n1 [Compound 340, 7-(3,3-dimethylpiperazin-1-yl)-2-(4,6-dimethylpyrazolo[1,5-a]pyrazin-2-yl)-4H-pyrido[1,2-a]pyrimidin-4-one] | < 0.1 µM | **** (an EC1.5x≤0.3 μM is indicated by four stars (****)) | ***** (a fold increase >1.65 is indicated by five stars (*****)) | 195 to 197 °C |
| Cc1cn2nc(-c3cc(=O)n4cc(N5CCN(C6CC6)CC5)ccc4n3)cc2c(C)n1 [Compound 341, 7-(4-cyclopropylpiperazin-1-yl)-2-(4,6-dimethylpyrazolo[1,5-a]pyrazin-2-yl)-4H-pyrido[1,2-a]pyrimidin-4-one] | 0.3 to 1 µM | *** (an EC1.5× between >0.3 μM and ≤1 μM is indicated by three stars (***)) | ***** (a fold increase >1.65 is indicated by five stars (*****)) | 189 to 192 °C |
| COc1ccc(-c2cc(=O)n3cc(N4CCN(C)CC4)cc(C)c3n2)cc1OC [Compound 344, 2-(3,4-dimethoxyphenyl)-9-methyl-7-(4-methylpiperazin-1-yl)-4H-pyrido[1,2-a]pyrimidin-4-one] | 0.1 to 0.3 µM | *** (an EC1.5× between >0.3 μM and ≤1 μM is indicated by three stars (***)) | ***** (a fold increase >1.65 is indicated by five stars (*****)) | 191 to 198 °C |
| CCc1cc(N2CCC(N(C)C)CC2)cn2c(=O)cc(-c3ccc(OC)c(OC)c3)nc12 [Compound 345, 2-(3,4-dimethoxyphenyl)-7-[4-(dimethylamino)piperidin-1-yl]-9-ethyl-4H-pyrido[1,2-a]pyrimidin-4-one] | < 0.1 µM | – | *** (a fold increase between >1.35 and ≤1.5 is indicated by three stars (***)) | 146 to 150 °C |
| COc1ccc(-c2cc(=O)n3cc(C4=CCN(CCO)CC4)cc(C)c3n2)cc1OC [Compound 346, 2-(3,4-dimethoxyphenyl)-7-[1-(2-hydroxyethyl)-1,2,3,6-tetrahydropyridin-4-yl]-9-methyl-4H-pyrido[1,2-a]pyrimidin-4-one] | < 0.1 µM | **** (an EC1.5x≤0.3 μM is indicated by four stars (****)) | **** (a fold increase between >1.5 and ≤1.65 is indicated by four stars (****)) | 169 to 179 °C |
| Cc1nc2cc(-c3cc(=O)n4cc(N5CCC(N(C)C)CC5)ccc4n3)ccc2s1 [Compound 347, 7-[4-(dimethylamino)piperidin-1-yl]-2-(2-methyl-1,3-benzothiazol-5-yl)-4H-pyrido[1,2-a]pyrimidin-4-one] | < 0.1 µM | – | *** (a fold increase between >1.35 and ≤1.5 is indicated by three stars (***)) | 218 to 220 °C |
| Cc1nc2cc(-c3cc(=O)n4cc(N5CCC(N)CC5)ccc4n3)ccc2s1 [Compound 348, 7-(4-aminopiperidin-1-yl)-2-(2-methyl-1,3-benzothiazol-5-yl)-4H-pyrido[1,2-a]pyrimidin-4-one] | 0.1 to 0.3 µM | – | ** (a fold increase between >1.2 and ≤1.35 is indicated by two stars (**)) | 190 to 192 °C |
| Cc1cn2nc(-c3cc(=O)n4cc(C5=CCN(C)CC5)ccc4n3)cc2c(C)n1 [Compound 350, 2-(4,6-dimethylpyrazolo[1,5-a]pyrazin-2-yl)-7-(1-methyl-1,2,3,6-tetrahydropyridin-4-yl)-4H-pyrido[1,2-a]pyrimidin-4-one] | < 0.1 µM | **** (an EC1.5x≤0.3 μM is indicated by four stars (****)) | ***** (a fold increase >1.65 is indicated by five stars (*****)) | 193 to 197 °C |
| CCN1CC=C(c2ccc3nc(-c4cc5c(C)nc(C)cn5n4)cc(=O)n3c2)CC1 [Compound 351, 2-(4,6-dimethylpyrazolo[1,5-a]pyrazin-2-yl)-7-(1-ethyl-1,2,3,6-tetrahydropyridin-4-yl)-4H-pyrido[1,2-a]pyrimidin-4-one] | < 0.1 µM | **** (an EC1.5x≤0.3 μM is indicated by four stars (****)) | ***** (a fold increase >1.65 is indicated by five stars (*****)) | 202 to 204 °C |
| CCCN1CC=C(c2ccc3nc(-c4cc5c(C)nc(C)cn5n4)cc(=O)n3c2)CC1 [Compound 352, 2-(4,6-dimethylpyrazolo[1,5-a]pyrazin-2-yl)-7-(1-propyl-1,2,3,6-tetrahydropyridin-4-yl)-4H-pyrido[1,2-a]pyrimidin-4-one] | < 0.1 µM | **** (an EC1.5x≤0.3 μM is indicated by four stars (****)) | **** (a fold increase between >1.5 and ≤1.65 is indicated by four stars (****)) | 191 to 193 °C |
| Cc1cn2nc(-c3cc(=O)n4cc(C5=CCN(C(C)C)CC5)ccc4n3)cc2c(C)n1 [Compound 355, 2-(4,6-dimethylpyrazolo[1,5-a]pyrazin-2-yl)-7-[1-(propan-2-yl)-1,2,3,6-tetrahydropyridin-4-yl]-4H-pyrido[1,2-a]pyrimidin-4-one] | < 0.1 µM | *** (an EC1.5× between >0.3 μM and ≤1 μM is indicated by three stars (***)) | **** (a fold increase between >1.5 and ≤1.65 is indicated by four stars (****)) | 186 to 189 °C |
| Cc1cn2nc(-c3cc(=O)n4cc(C5=CCN(C6CCC6)CC5)ccc4n3)cc2c(C)n1 [Compound 356, 7-(1-cyclobutyl-1,2,3,6-tetrahydropyridin-4-yl)-2-(4,6-dimethylpyrazolo[1,5-a]pyrazin-2-yl)-4H-pyrido[1,2-a]pyrimidin-4-one] | < 0.1 µM | *** (an EC1.5× between >0.3 μM and ≤1 μM is indicated by three stars (***)) | **** (a fold increase between >1.5 and ≤1.65 is indicated by four stars (****)) | 191 to 193 °C |
| COc1ccc(-c2cc(=O)n3cc(N4CCNCC4)c(C)cc3n2)cc1OC [Compound 360, 2-(3,4-dimethoxyphenyl)-8-methyl-7-(piperazin-1-yl)-4H-pyrido[1,2-a]pyrimidin-4-one] | 1 to 3 µM | – | * (A maximum fold increase of ≤1.2 is indicated by one star (*)) | 161 to 169 °C |
| COc1ccc(-c2cc(=O)n3cc(C4=CCN(C5CCC5)CC4)ccc3n2)cc1OC [Compound 362, 7-(1-cyclobutyl-1,2,3,6-tetrahydropyridin-4-yl)-2-(3,4-dimethoxyphenyl)-4H-pyrido[1,2-a]pyrimidin-4-one] | 0.3 to 1 µM | – | *** (a fold increase between >1.35 and ≤1.5 is indicated by three stars (***)) | 152 to 154 °C |
| COc1ccc(-c2cc(=O)n3cc(C4=CCN(C(C)C)CC4)ccc3n2)cc1OC [Compound 363, 2-(3,4-dimethoxyphenyl)-7-[1-(propan-2-yl)-1,2,3,6-tetrahydropyridin-4-yl]-4H-pyrido[1,2-a]pyrimidin-4-one] | 0.3 to 1 µM | – | ** (a fold increase between >1.2 and ≤1.35 is indicated by two stars (**)) | 116 to 118 °C |
| COc1ccc(-c2cc(=O)n3cc(C4=CCN(C5COC5)CC4)ccc3n2)cc1OC [Compound 364, 2-(3,4-dimethoxyphenyl)-7-[1-(oxetan-3-yl)-1,2,3,6-tetrahydropyridin-4-yl]-4H-pyrido[1,2-a]pyrimidin-4-one] | 1 to 3 µM | – | * (A maximum fold increase of ≤1.2 is indicated by one star (*)) | 178 to 180 °C |
| CCCN1CC=C(c2ccc3nc(-c4ccc(OC)c(OC)c4)cc(=O)n3c2)CC1 [Compound 365, 2-(3,4-dimethoxyphenyl)-7-(1-propyl-1,2,3,6-tetrahydropyridin-4-yl)-4H-pyrido[1,2-a]pyrimidin-4-one] | 0.1 to 0.3 µM | – | *** (a fold increase between >1.35 and ≤1.5 is indicated by three stars (***)) | 158 to 160 °C |
| CNC1CC=C(c2ccc3nc(-c4ccc(OC)c(OC)c4)cc(=O)n3c2)CC1 (centres unmarked) [Compound 366, 2-(3,4-dimethoxyphenyl)-7-[4-(methylamino)cyclohex-1-en-1-yl]-4H-pyrido[1,2-a]pyrimidin-4-one] | < 0.1 µM | **** (an EC1.5x≤0.3 μM is indicated by four stars (****)) | **** (a fold increase between >1.5 and ≤1.65 is indicated by four stars (****)) | 232 to 235 °C |
| COc1ccc(-c2cc(=O)n3cc(C4=CCC(N(C)C)CC4)ccc3n2)cc1OC (centres unmarked) [Compound 367, 2-(3,4-dimethoxyphenyl)-7-[4-(dimethylamino)cyclohex-1-en-1-yl]-4H-pyrido[1,2-a]pyrimidin-4-one] | < 0.1 µM | * (An EC1.5× for Smn protein expression between >3 μM and ≤10 μM is indicated by one star (*)) | *** (a fold increase between >1.35 and ≤1.5 is indicated by three stars (***)) | 162 to 164 °C |
